From patent US9096543B2, “Nuclear transport modulators and uses thereof” (Karyopharm Therapeutics Inc., priority 2012, dated 2015)

Tested on: anti-collagen antibody induced arthritis
Test: Anti-collagen antibody induced mouse model of rheumatoid arthritis (CAIA)
Type: in vivo, Balb/c mice
Experimental: Twenty-four (24) male Balb/c mice, aged 6 to 8 weeks were used. […] On study Day 0 (study commencement), all mice were subjected to a 2 mg intravenous injection of ArthritoMAb™ antibody cocktail (MD Biosciences #S1203001) followed by an intraperitoneal injection of LPS (100 μg/mouse) on study Day 3. […] Treatments were administered once daily on days 4, 6, 8 and 10 for all groups, except where dosing vacations applied. If an animal's weight dropped below 87% of its day 0 starting weight, the animal was not dosed until it gained weight equivalent to 90% or more of day 0 weight.
Arthritis development, clinical signs and body weights were monitored in all mice on study days 0, 3-8, 10 and 12. Observations included changes in skin, fur, eyes, mucous membranes, occurrence of secretions and excretions (e.g., diarrhea) and autonomic activity (e.g., lacrimation, salivation, piloerection, pupil size, unusual respiratory pattern). All paws (front left and right, and rear left and right) of each animal were examined for signs of arthritogenic responses prior to arthritis induction and test item or control item administration on study Day 0 and subsequently on study Days 3-8, 10 and 12 (study termination). A rthritis reactions were scored and recorded according to a 0-4 scale in ascending order of severity, as shown Table 5 below. Paw thickness was also measured using a dial caliper (Kroeplin, Munich, Germany).
The dose administered was calculated based on the assumption that the animals weighed, on average, 20 g. […] Vehicle for the vehicle control group was prepared by dissolving 0.6 g Pluronic and 0.6 g PVP in 100 mL distilled deionised water. The MAb stock solution (10 mg/mL) was supplied by MD Biosciences, Division of Morwell Diagnostics GmbH. LPS was diluted with PBS to achieve the appropriate concentration. Thorough vortexing was required just prior to its injection. […] A fixed volume of 200 μL was administered to each mouse.
Evaluation was primarily based on the mean values for arthritis scoring and paw thickness measurements. […]

With O=C(/C=C\n1cnc(-c2cc(C(F)(F)F)cc(C(F)(F)F)c2)n1)NNC(=O)CN1CCOCC1 [Compound 2, (Z)-3-(3-(3,5-bis(trifluoromethyl)phenyl)-1H-1,2,4-triazol-1-yl)-N′-(2-morpholinoacetyl)acrylohydrazide] the anti-arthritic activity (7.5 mg/kg or 4 mg/kg orally) was “exhibited significant anti-arthritic activity”, the “days on which rear paw arthritis score was significantly reduced compared to vehicle” value (7.5 mg/kg or 4 mg/kg orally) was 5-12 and the “days on which total arthritis score was significantly reduced compared to vehicle” value (7.5 mg/kg orally, days 4, 6, 8, 10) was 5-12.
